Experimental data from US20240393292A1, “ALLERGY ANTIGEN AND EPITOPE THEREOF” (HOYU CO., LTD., priority 2019, published 2024).
Blank lines part the entries; values can stand above or below the substance they belong to.

System: IgE antibodies from patients
Assay: Wheat epitope mapping (2): overlapping 10-amino-acid peptide fragments shifted by one amino acid;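 for Rank of partial sequence as epitope binding to IgE antibody: key = sequence deemed particularly important within the common 15-residue sequence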;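 for epitope sequence binding to IgE antibody, rank (Key/Preferably/More preferably): key of grades: preferably = shorter partial sequence still acting as epitope; more preferably = sequence improving IgE binding; key = particularly important sequence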
Format: binding, human
Procedure: The peptides to be synthesized were shifted by one amino acid.
The library was prepared by the same procedure as described above in (A), and the presence or absence of binding of an IgE antibody present in the serum of a patient to each peptide fragment was measured by the same technique as described above. Numeric values determined from images obtained as a result of carrying out only the procedures (1) and (4) to (6) described above in the subsection titled (3) Spotting of cellulose-bound peptide solution were used as control values. The control value of each peptide was subtracted from numeric values determined from images obtained from results about the serum of patients, and the obtained value of the difference was compared with values of the peptides serving as the basis of overlapping.
Chemiluminescence intensity in images obtained by measurement was converted into a numeric value in the same manner as in (A). Numeric values determined from images obtained as a result of carrying out only the procedures (1) and (4) to (6) described above in the subsection titled (3) Spotting of cellulose-bound peptide solution (secondary antibody measurement values) were used as control values. The control value of each peptide was subtracted from numeric values determined from images obtained from results about the serum of patients. When values obtained using the sequences (SEQ ID NOs: 29, 131, 191, 281, 346, 414, 493, 562, 640, 706, 776, 899, 974, 1010, 1089, 1142, 1166, 1209, 1257, 1297, 1367, 1403, 1508, 1566, 1598, 1608, 1685, 1753, 1789, 1836, 1895, 1977, 2004, 2027, 2068, 2154, 2217, 2265, 2309, 2342, 2419, 2491, 2545, 2613, 2631, 2674, 2701, 2774, 2809 and 2830) serving as the basis of overlapping were defined as 100%, it was determined that: a peptide having a value of the difference that was less than 30% had no binding activity against IgE antibodies; a peptide having a value of the difference that was 30% or more and less than 50% had binding activity, albeit poor, against IgE antibodies; a peptide having a value of the difference that was 50% or more and less than 70% had binding activity, albeit somewhat poor, against IgE antibodies; and a peptide having a value of the difference that was 70% or more had equivalent or good binding activity against IgE antibodies and was thus a peptide had remaining binding activity against IgE antibodies.

[1] = serum of patient P34 (WDEIA), sequence without X
[2] = serum of patient G7 (adult, general immediate type allergy to wheat), sequence without X
[3] = serum of patient P52 (child, general immediate type allergy to wheat), sequence without X
[4] = serum of patient P27 (WDEIA), sequence without X
[5] = serum of patient P33 (WDEIA), partial sequence
[6] = serum of patient G3 (adult, general immediate type allergy to wheat), partial sequence
[7] = serum of patient P55 (child, general immediate type allergy to wheat), sequence without X
[8] = serum of patient P8 (WDEIA), partial sequence
[9] = serum of patient P32 (WDEIA), sequence without X

Epitope sequence binding to IgE antibody, rank of the sequence (Key/Preferably/More preferably) [1]: Key
Substance: 2394 (HDIDRCAYV; REGION 1..9: note = epitope) [compound 2394]

Epitope sequence binding to IgE antibody, rank of the sequence (serum of patient P2 (WDEIA), partial sequence): Preferably
Substance: 2493 (SSQVSF; REGION 1..6: note = epitope) [compound 2493]

Rank of partial sequence as epitope binding to IgE antibody [2]: Key
Substance: 1505 (SQQQA; REGION 1..5: note = epitope) [compound 1505]

Epitope sequence binding to IgE antibody, rank of the sequence (serum of patient P14 (WDEIA), sequence without X): Key
Substance: 1316 (VEDNRRALR; REGION 1..9: note = epitope) [compound 1316]

Epitope sequence binding to IgE antibody, rank of the sequence (Key/Preferably/More preferably) [3]: Preferably
Substance: 2253 (RNYRVAI; REGION 1..7: note = epitope) [compound 2253]

Rank of partial sequence as epitope binding to IgE antibody (serum of patient G9 (adult, general immediate type allergy to wheat), sequence without X): Key
Substance: 1683 (YNPDKVPF; REGION 1..8: note = epitope) [compound 1683]

Rank of partial sequence as epitope binding to IgE antibody (serum of patient P19 (WDEIA), sequence without X): Preferably
Substance: 1693 (KEAANFTS; REGION 1..8: note = epitope) [compound 1693]

epitope sequence binding to IgE antibody, rank (Key/Preferably/More preferably) (serum of patient P26 (WDEIA)): Key
Substance: 1865 (TVRTLQR; REGION 1..7: note = epitope) [compound 1865]

Rank of partial sequence as epitope binding to IgE antibody [1]: Preferably
Substance: 1548 (QVPLVQQQ; REGION 1..8: note = epitope) [compound 1548]

Epitope sequence binding to IgE antibody, rank of the sequence (serum of patient G7 (adult, general immediate type allergy to wheat), partial sequence): Key
Substance: 2609 (QLVQQLCC; REGION 1..8: note = epitope) [compound 2609]

Rank of partial sequence as epitope binding to IgE antibody [4]: Key
Substance: 1629 (YNPD; REGION 1..4: note = epitope) [compound 1629]

epitope sequence binding to IgE antibody, rank (Key/Preferably/More preferably) (serum of patient P10 (WDEIA)): Key
Substance: 1920 (LVQQQQFPGQ; REGION 1..10: note = epitope) [compound 1920]

Epitope sequence binding to IgE antibody, rank of the sequence (serum of patient P25 (WDEIA), partial sequence): Key
Substance: 2565 (QSTYQLVQ; REGION 1..8: note = epitope) [compound 2565]

Epitope sequence binding to IgE antibody, rank of the sequence [5]: Key
Substance: 2743 (YKIGGIGTV; REGION 1..9: note = epitope) [compound 2743]

Epitope sequence binding to IgE antibody, rank of the sequence [6]: Key
Substance: 2626 (LSKRV; REGION 1..5: note = epitope) [compound 2626]

Rank of partial sequence as epitope binding to IgE antibody (serum of patient P36 (WDEIA), sequence without X): More preferably
Substance: 1645 (YNPDKVPFV; REGION 1..9: note = epitope) [compound 1645]

epitope sequence binding to IgE antibody, rank (Key/Preferably/More preferably) (serum of patient P34 (WDEIA)): More preferably
Substance: 1710 (KEAANFTS; REGION 1..8: note = epitope) [compound 1710]

epitope sequence binding to IgE antibody, rank (Key/Preferably/More preferably) (serum of patient P24 (WDEIA)): Preferably
Substance: 1861 (TVRTLQRT; REGION 1..8: note = epitope) [compound 1861]

Epitope sequence binding to IgE antibody, rank of the sequence (Key/Preferably/More preferably) [2]: Preferably
Substance: 2415 (IDRCAYV; REGION 1..7: note = epitope) [compound 2415]

epitope sequence binding to IgE antibody, rank (Key/Preferably/More preferably) (serum of patient P52 (child, general immediate type allergy to wheat)): Key
Substance: 1825 (LPKF; REGION 1..4: note = epitope) [compound 1825]

Epitope sequence binding to IgE antibody, rank of the sequence (Key/Preferably/More preferably) [7]: Key
Substance: 2259 (RNYRV; REGION 1..5: note = epitope) [compound 2259]

Epitope sequence binding to IgE antibody, rank of the sequence (Key/Preferably/More preferably) [4]: Preferably
Substance: 2376 (AYVTEIV; REGION 1..7: note = epitope) [compound 2376]

Epitope sequence binding to IgE antibody, rank of the sequence (serum of patient P20 (WDEIA), sequence without X): Preferably
Substance: 1324 (INVEN; REGION 1..5: note = epitope) [compound 1324]

Epitope sequence binding to IgE antibody, rank of the sequence [8]: Preferably
Substance: 2499 (SQVSF; REGION 1..5: note = epitope) [compound 2499]

epitope sequence binding to IgE antibody, rank (Key/Preferably/More preferably) (serum of patient P32 (WDEIA)): Preferably
Substance: 1961 (QQQQFPGQQ; REGION 1..9: note = epitope) [compound 1961]

epitope sequence binding to IgE antibody, rank (Key/Preferably/More preferably) (serum of patient P8 (WDEIA)): Key
Substance: 1842 (TVRTLQ; REGION 1..6: note = epitope) [compound 1842]

Epitope sequence binding to IgE antibody, rank of the sequence (Key/Preferably/More preferably) [3]: Key
Substance: 2251 (SRLLRGIR; REGION 1..8: note = epitope) [compound 2251]

epitope sequence binding to IgE antibody, rank (Key/Preferably/More preferably) (serum of patient P35 (WDEIA)): Key
Substance: 1822 (SGKELEALPK; REGION 1..10: note = epitope) [compound 1822]

Epitope sequence binding to IgE antibody, rank of the sequence (Key/Preferably/More preferably) (serum of patient P33 (WDEIA), sequence without X): Key
Substance: 2390 (VTEIV; REGION 1..5: note = epitope) [compound 2390]

Rank of partial sequence as epitope binding to IgE antibody (serum of patient P24 (WDEIA), sequence without X): Further preferably
Substance: 1459 (YLQPQQPISQ; REGION 1..10: note = epitope) [compound 1459]

Epitope sequence binding to IgE antibody, rank of the sequence [5]: Key
Substance: 2692 (YKGPTL; REGION 1..6: note = epitope) [compound 2692]

Epitope sequence binding to IgE antibody, rank of the sequence [6]: Key
Substance: 2624 (AKPLL; REGION 1..5: note = epitope) [compound 2624]

epitope sequence binding to IgE antibody, rank (Key/Preferably/More preferably) (serum of patient P17 (WDEIA)): Key
Substance: 1854 (RTLQR; REGION 1..5: note = epitope) [compound 1854]

epitope sequence binding to IgE antibody, rank (Key/Preferably/More preferably) (serum of patient P29 (WDEIA)): Key
Substance: 1815 (PKFLK; REGION 1..5: note = epitope) [compound 1815]

epitope sequence binding to IgE antibody, rank (Key/Preferably/More preferably) (serum of patient P19 (WDEIA)): Preferably
Substance: 1937 (QQFPGQQQ; REGION 1..8: note = epitope) [compound 1937]

epitope sequence binding to IgE antibody, rank (Key/Preferably/More preferably) (serum of patient P29 (WDEIA)): Key
Substance: 1871 (VRTLQR; REGION 1..6: note = epitope) [compound 1871]

epitope sequence binding to IgE antibody, rank (Key/Preferably/More preferably) (serum of patient P35 (WDEIA)): Key
Substance: 1715 (KEAA; REGION 1..4: note = epitope) [compound 1715]

Epitope sequence binding to IgE antibody, rank of the sequence (Key/Preferably/More preferably) [7]: Key
Substance: 2257 (SRLLRGIRN; REGION 1..9: note = epitope) [compound 2257]

epitope sequence binding to IgE antibody, rank (Key/Preferably/More preferably) (serum of patient G7 (adult, general immediate type allergy to wheat)): Key
Substance: 1750 (KEAANFT; REGION 1..7: note = epitope) [compound 1750]

epitope sequence binding to IgE antibody, rank (Key/Preferably/More preferably) (serum of patient P12 (WDEIA)): Key
Substance: 1924 (FPGQQ; REGION 1..5: note = epitope) [compound 1924]

epitope sequence binding to IgE antibody, rank (Key/Preferably/More preferably) (serum of patient P12 (WDEIA)): Key
Substance: 1922 (QVPLVQQ; REGION 1..7: note = epitope) [compound 1922]

Rank of partial sequence as epitope binding to IgE antibody (serum of patient P12 (WDEIA), sequence without X): Preferably
Substance: 1528 (QVPLVQQ; REGION 1..7: note = epitope) [compound 1528]

Epitope sequence binding to IgE antibody, rank of the sequence (serum of patient P36 (WDEIA), partial sequence): Key
Substance: 2512 (SQVSF; REGION 1..5: note = epitope) [compound 2512]

Epitope sequence binding to IgE antibody, rank of the sequence [9]: Preferably
Substance: 1339 (INVEN; REGION 1..5: note = epitope) [compound 1339]

Epitope sequence binding to IgE antibody, rank of the sequence (Key/Preferably/More preferably) (serum of patient P9 (WDEIA), sequence without X): More preferably
Substance: 2345 (YVTEIVL; REGION 1..7: note = epitope) [compound 2345]

Rank of partial sequence as epitope binding to IgE antibody [9]: Key
Substance: 1635 (YNPD; REGION 1..4: note = epitope) [compound 1635]

epitope sequence binding to IgE antibody, rank (Key/Preferably/More preferably) (serum of patient P36 (WDEIA)): Key
Substance: 1886 (TVRTLQRT; REGION 1..8: note = epitope) [compound 1886]

Epitope sequence binding to IgE antibody, rank of the sequence (serum of patient P53 (child, general immediate type allergy to wheat), partial sequence): Preferably
Substance: 2601 (QQSTYQLVQ; REGION 1..9: note = epitope) [compound 2601]

Epitope sequence binding to IgE antibody, rank of the sequence [8]: Key
Substance: 2500 (QVSF; REGION 1..4: note = epitope) [compound 2500]

Epitope sequence binding to IgE antibody, rank of the sequence (Key/Preferably/More preferably) (serum of patient P8 (WDEIA), sequence without X): More preferably
Substance: 2271 (LGGIDKRV; REGION 1..8: note = epitope) [compound 2271]
